Assay results: patent US20220175818A1, “Inhibition of Monoamine Oxidase Subtype A (MAOA) Mitigates Cardiovascular Calcification” (The Brigham and Women's Hospital, Inc., priority 2019, published 2022)

Tested on: VICs
Assay: Alizarin red calcification assay of VICs grown in osteogenic media with MAOA inhibitors
Format: cell-based, human
Details: VICs grown in OM, 21 days, inhibitor 10 μM, PBS control, n=3, FIG. 7E
Description: Representative images, n=3 donors.
Osteogenic, chondrogenic, and adipogenic differentiation assays were conducted for samples of protein, RNA, and media collected at 0, 1, 2, and 3 weeks after changing media from growth media to specialized media. Alizarin Red. alizarin red (AR) 2% (Thermo Fisher Scientific), Alcian blue (AB) 1%, and oil red O (ORO) (Abcam) were used for osteogenic, chondrogenic, and adipogenic assays respectively. Cells plated in 48 or 96 well plates were washed with PBS and fixed for 15 minutes at room temperature with 10% formalin for AR and AB and 4% PFA for ORO. After washing with Milli-Q water, stains were added. […] The incubation times were 20 minutes (AR), 1 hour (AB), and 15 minutes in room temperature (ORO). Washes with Milli-Q water followed for the AR (3×) and AB (4×) stains. […] Pictures were taken using an iPhone7 (Apple) and the amount of dye released was quantified by spectrophotometry at 550 nm.

SMILES | calcification (Alizarin red staining)
O=C(NCCN1CCOCC1)c1ccc(Cl)cc1 [moclobemide, Moclobemide] | reduction of calcification
Cc1ccc2c(c1)c1c3n2CCNC3CCC1 (centres unmarked) [pirindole] | reduction of calcification
